Patent US20220372014A1, “NEUROPROTECTIVE COMPOUNDS AND METHODS OF USE THEREOF” (The Johns Hopkins University, priority 2019, published 2022)

How the values were obtained:
[1] = biological target: T1, MIF (Homo sapiens, UniProt P14174); test: Nuclease assay of Example 3 (MIF inhibitory activity, Table 4); type: biochemical; set-up: (%) inhibition of MIF nuclease activity: concentration or dose not given beside the values; conditions: nuclease assay of Example 3
T1 sequence (P14174 1-115): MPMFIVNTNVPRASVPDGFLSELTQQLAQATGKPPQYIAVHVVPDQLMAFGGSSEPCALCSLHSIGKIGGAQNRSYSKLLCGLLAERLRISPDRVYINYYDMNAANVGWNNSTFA
Description: A rapafucin library was synthesized as described in WO2017/136708 and Guo et al. (2018) Nat. Chem. 11:254-63. The hybrid macrocyclic library consisted of 45,000 compounds in pools of 15 individual compounds. The library compounds were screened for MIF inhibitory activity using a nuclease assay as detailed in FIG. 1 and below.
Nuclease assay: Human genomic DNA (200 ng/reaction, Promega), pcDNA (200 ng/reaction) or PS^30 and its related and non-related substrates (1 μM) was incubated with wild type MIF or its variants at a final concentration of 0.25-8 μM as indicated in 10 mM Tris-HCl buffer (pH 7.0) containing 10 mM MgCl2 and 1 mM DTT or specific buffer as indicated, for 1 h (with pcDNA and small DNA substrates) or 4 h (with human genomic DNA) at 37° C. The reaction was terminated with loading buffer containing 10 mM EDTA and incubation on ice. The human genomic DNA samples were immediately separated on a 1.2% pulse field certified agarose in 0.5×TBE buffer with initial switch time of 1.5 s and a final switch time of 3.5 s for 12 h at 6 V/cm. pcDNA samples were determined by 1% agarose gel. Small DNA substrates were separated on 15% or 25% TBE-urea polyacrylamide (PAGE) gel or 20% TBE PAGE gel. Then gel was stained with 0.5 μg/ml Ethidium Bromide (EtBr) followed by electrophoretic transfer to nylon membrane. Then, Biotin-labeled DNA is further detected by chemiluminescence using Chemiluminescent Nucleic Acid Detection Module (Thermo Scientific).
Structure-activity relationship (SAR) analysis was then conducted on the compounds identified as having MIF inhibitory activity. Compounds having the structure of Formula (I) were then synthesized as shown in Example 1 and tested for MIF inhibitory activity using the nuclease assay described herein and neuronal protection via a cell death assay as detailed below.

[2] = test system: HeLa cells or neuronal cells; test: Cell death assay of Example 3 (MNNG, alamarBlue; protection against parthanatos, Table 4); type: cell-based; conditions: 1 μM test compound, MNNG-induced cell death, alamarBlue
Description: Cell death assay: 200 μl of cells (HeLa cells or neuronal cells) culture (1×10^4 cells/well) were plated into the wells of a sterile 96-well cell culture plate. The cells were incubated for 18 hours at 37° C. The medium was removed and changed with 100 μl/well of 1 μM test compound. Incubate for 1 hours at 37° C. Ten μl of 500 μM MNNG (N-Methyl-N′-nitro-N-nitrosoguanidine) was added to each well. The medium was aspirated well and incubated for 15 min at 37° C. The cells were washed with the fresh medium. The medium was changed with 1 μM of test compound and incubated for 18 hours at 37° C. 10 μl/well of alamarBlue reagent was added directly to the well and incubated for 1 to 4 hours at 37° C. Fluorescence was measured using a fluorescence excitation wavelength of 560 nm and emission at 590 nm. The percentage of cell death was determined as the ratio of live to dead cells compared with the percentage of cell death in control wells to account for cell death attributed to mechanical stimulation of the cultures.

Row | (%) inhibition of MIF nuclease activity [1] | SMILES | (%) inhibition of cell death [2]
1 | 37.4% | COc1ccc(CC[C@H]2OC(=O)[C@@H]3CCCCN3C(=O)C(=O)C(C)(C)COC(=O)C=CCCN(C)C(=O)[C@H](Cc3ccc(F)cc3)NC(=O)[C@H](COC(C)(C)C)N(C)C(=O)C(c3ccccc3)NC(=O)CN(C)C(=O)COc3cccc2c3)cc1OC (stereo partly drawn) [compound 40] | 53.8%
2 | 40.8% | COc1ccc(CC[C@H]2OC(=O)[C@@H]3CCCCN3C(=O)C(=O)C(C)(C)COC(=O)C=CCCN(C)C(=O)[C@H](CC3CCCCC3)NC(=O)[C@H](COC(C)(C)C)N(C)C(=O)C(c3ccccc3)NC(=O)CN(C)C(=O)COc3cccc2c3)cc1OC (stereo partly drawn) [compound 42] | 53.2%
3 | 45.6% | COc1ccc(CC[C@H]2OC(=O)[C@@H]3CCCCN3C(=O)C(=O)C(C)(C)COC(=O)C=CCCN(C)C(=O)[C@H](Cc3ccc4ccccc4c3)NC(=O)[C@H](COC(C)(C)C)N(C)C(=O)C(c3ccccc3)NC(=O)CN(C)C(=O)COc3cccc2c3)cc1OC (stereo partly drawn) [compound 43] | 54.8%
4 | 30.0% | COc1ccc(CC[C@H]2OC(=O)[C@@H]3CCCCN3C(=O)C(=O)C(C)(C)COC(=O)C=CCCN(C)C(=O)[C@H](C(C)C)NC(=O)[C@H](COC(C)(C)C)N(C)C(=O)C(c3ccccc3)NC(=O)CN(C)C(=O)COc3cccc2c3)cc1OC (stereo partly drawn) [compound 44] | 52.2%
5 | 15.4% | COc1ccc(CC[C@H]2OC(=O)[C@@H]3CCCCN3C(=O)C(=O)C(C)(C)COC(=O)C=CCCN(C)C(=O)[C@H](c3ccccc3)NC(=O)[C@H](COC(C)(C)C)N(C)C(=O)C(c3ccccc3)NC(=O)CN(C)C(=O)COc3cccc2c3)cc1OC (stereo partly drawn) [compound 45] | 51.9%
6 | 52.3% | COc1ccc(CC[C@H]2OC(=O)[C@@H]3CCCCN3C(=O)C(=O)C(C)(C)COC(=O)C=CCCN(C)C(=O)[C@H](C)NC(=O)[C@H](COC(C)(C)C)N(C)C(=O)C(c3ccccc3)NC(=O)[C@H](C)N(C)C(=O)COc3cccc2c3)cc1OC (stereo partly drawn) [compound 47] | 54.2%
7 | 61.5% | COc1ccc(CC[C@H]2OC(=O)[C@@H]3CCCCN3C(=O)C(=O)C(C)(C)COC(=O)C=CCCN(C)C(=O)[C@@H](C)NC(=O)[C@H](COC(C)(C)C)N(C)C(=O)C(c3ccccc3)NC(=O)[C@H](C)N(C)C(=O)COc3cccc2c3)cc1OC (stereo partly drawn) [compound 48] | 49.2%
8 | 14.7% | CCC[C@@H]1NC(=O)[C@H](COC(C)(C)C)N(C)C(=O)C(c2ccccc2)NC(=O)[C@H](C)N(C)C(=O)COc2cccc(c2)[C@@H](CCc2ccc(OC)c(OC)c2)OC(=O)[C@@H]2CCCCN2C(=O)C(=O)C(C)(C)COC(=O)C=CCCN(C)C1=O (stereo partly drawn) [compound 49] | 60.0%
9 | 18.0% | COCC[C@@H]1NC(=O)[C@H](COC(C)(C)C)N(C)C(=O)C(c2ccccc2)NC(=O)[C@H](C)N(C)C(=O)COc2cccc(c2)[C@@H](CCc2ccc(OC)c(OC)c2)OC(=O)[C@@H]2CCCCN2C(=O)C(=O)C(C)(C)COC(=O)C=CCCN(C)C1=O (stereo partly drawn) [compound 50] | 56.4%
10 | 9.9% | COc1ccc(CC[C@H]2OC(=O)[C@@H]3CCCCN3C(=O)C(=O)C(C)(C)COC(=O)C=CCCN(C)C(=O)[C@@H](CC(C)C)NC(=O)[C@H](COC(C)(C)C)N(C)C(=O)C(c3ccccc3)NC(=O)[C@H](C)N(C)C(=O)COc3cccc2c3)cc1OC (stereo partly drawn) [compound 52] | 61.0%
11 | 14.1% | COc1ccc(CC[C@H]2OC(=O)[C@@H]3CCCCN3C(=O)C(=O)C(C)(C)COC(=O)C=CCCN(C)C(=O)[C@H](Cc3ccccc3)NC(=O)[C@H](COC(C)(C)C)N(C)C(=O)C(c3ccccc3)NC(=O)[C@H](C)N(C)C(=O)COc3cccc2c3)cc1OC (stereo partly drawn) [compound 53] | 58.3%
12 | 15.9% | COc1ccc(CC[C@H]2OC(=O)[C@@H]3CCCCN3C(=O)C(=O)C(C)(C)COC(=O)C=CCCN(C)C(=O)[C@@H](Cc3ccccc3)NC(=O)[C@H](COC(C)(C)C)N(C)C(=O)C(c3ccccc3)NC(=O)[C@H](C)N(C)C(=O)COc3cccc2c3)cc1OC (stereo partly drawn) [compound 54] | 56.0%
13 | 13.6% | COc1ccc(CC[C@H]2OC(=O)[C@@H]3CCCCN3C(=O)C(=O)C(C)(C)COC(=O)C=CCCN(C)C(=O)[C@H](Cc3ccc(F)cc3)NC(=O)[C@H](COC(C)(C)C)N(C)C(=O)C(c3ccccc3)NC(=O)[C@H](C)N(C)C(=O)COc3cccc2c3)cc1OC (stereo partly drawn) [compound 55] | 59.9%
14 | 18.4% | COc1ccc(CC[C@H]2OC(=O)[C@@H]3CCCCN3C(=O)C(=O)C(C)(C)COC(=O)C=CCCN(C)C(=O)[C@H](CC3CCCCC3)NC(=O)[C@H](COC(C)(C)C)N(C)C(=O)C(c3ccccc3)NC(=O)[C@H](C)N(C)C(=O)COc3cccc2c3)cc1OC (stereo partly drawn) [compound 57] | 59.3%
15 | 16.5% | COc1ccc(CC[C@H]2OC(=O)[C@@H]3CCCCN3C(=O)C(=O)C(C)(C)COC(=O)C=CCCN(C)C(=O)[C@H](Cc3ccc4ccccc4c3)NC(=O)[C@H](COC(C)(C)C)N(C)C(=O)C(c3ccccc3)NC(=O)[C@H](C)N(C)C(=O)COc3cccc2c3)cc1OC (stereo partly drawn) [compound 58] | 56.1%
16 | 13.3% | COc1ccc(CC[C@H]2OC(=O)[C@@H]3CCCCN3C(=O)C(=O)C(C)(C)COC(=O)C=CCCN(C)C(=O)[C@H](C(C)C)NC(=O)[C@H](COC(C)(C)C)N(C)C(=O)C(c3ccccc3)NC(=O)[C@H](C)N(C)C(=O)COc3cccc2c3)cc1OC (stereo partly drawn) [compound 59] | 58.9%
17 | 59.4% | COc1ccc(CC[C@H]2OC(=O)[C@@H]3CCCCN3C(=O)C(=O)C(C)(C)COC(=O)C=CCCN(C)C(=O)[C@H](c3ccccc3)NC(=O)[C@H](COC(C)(C)C)N(C)C(=O)C(c3ccccc3)NC(=O)[C@H](C)N(C)C(=O)COc3cccc2c3)cc1OC (stereo partly drawn) [compound 60] | 55.4%
18 | 19.2% | COc1ccc(CC[C@H]2OC(=O)[C@@H]3CCCCN3C(=O)C(=O)C(C)(C)COC(=O)C=CCCN(C)C(=O)CNC(=O)[C@H](Cc3ccccc3)N(C)C(=O)[C@@H](C)NC(=O)CN(C)C(=O)COc3cccc2c3)cc1OC [compound 61] | 53.8%
19 | 13.1% | COc1ccc(CC[C@H]2OC(=O)[C@@H]3CCCCN3C(=O)C(=O)C(C)(C)COC(=O)C=CCCN(C)C(=O)[C@H](C)NC(=O)[C@H](Cc3ccccc3)N(C)C(=O)[C@@H](C)NC(=O)CN(C)C(=O)COc3cccc2c3)cc1OC [compound 62] | 53.7%

Row | SMILES | (%) inhibition of MIF nuclease activity [1] | (%) inhibition of cell death [2]
20 | COc1ccc(CC[C@H]2OC(=O)[C@@H]3CCCCN3C(=O)C(=O)C(C)(C)COC(=O)C=CCCN(C)C(=O)CNC(=O)[C@H](COC(C)(C)C)N(C)C(=O)C(c3ccccc3)NC(=O)[C@H](C)N(C)C(=O)COc3cccc2c3)cc1OC (stereo partly drawn) [compound 46] | 21.7% | 52.5%
21 | CCC[C@@H]1NC(=O)[C@H](Cc2ccccc2)N(C)C(=O)[C@@H](C)NC(=O)CN(C)C(=O)COc2cccc(c2)[C@@H](CCc2ccc(OC)c(OC)c2)OC(=O)[C@@H]2CCCCN2C(=O)C(=O)C(C)(C)COC(=O)C=CCCN(C)C1=O [compound 64] | 27.2% | 52.3%
